What was measured:
TIE-2 = TIE-2 (Homo sapiens, UniProt Q02763); assay: In vitro biochemical and/or cellular kinase assays
[1] = tested on: previously treated advanced HCC; assay: CELESTIAL secondary analysis: target lesion size, serum AFP, time to progression; assay type: in vivo, human
Description: Patients must have received prior sorafenib and were allowed up to 2 lines of prior systemic therapy for HCC. Change in the sum of target lesion diameters (SOD) from baseline was determined every 8 weeks by investigator. Best percentage change in SOD was defined as the maximum reduction in SOD at any postbaseline timepoint. Serum AFP levels were measured centrally at baseline and every 8 weeks on the same schedule as tumor assessments. TTP was defined as the time from randomization to radiological progression or clinical deterioration and was determined retrospectively.

CYP2C9 = CYP2C9 (Homo sapiens, UniProt P11712); assay: In vitro CYP inhibition; assay type: in vitro ADME
CYP2C8 [2] = target: CYP2C8 (Homo sapiens, UniProt P10632); assay: In vitro metabolic pathways; assay type: in vitro ADME
RET = RET (Homo sapiens, UniProt P07949); assay: In vitro biochemical and/or cellular kinase assays
RET, sequence (P07949 29-1114): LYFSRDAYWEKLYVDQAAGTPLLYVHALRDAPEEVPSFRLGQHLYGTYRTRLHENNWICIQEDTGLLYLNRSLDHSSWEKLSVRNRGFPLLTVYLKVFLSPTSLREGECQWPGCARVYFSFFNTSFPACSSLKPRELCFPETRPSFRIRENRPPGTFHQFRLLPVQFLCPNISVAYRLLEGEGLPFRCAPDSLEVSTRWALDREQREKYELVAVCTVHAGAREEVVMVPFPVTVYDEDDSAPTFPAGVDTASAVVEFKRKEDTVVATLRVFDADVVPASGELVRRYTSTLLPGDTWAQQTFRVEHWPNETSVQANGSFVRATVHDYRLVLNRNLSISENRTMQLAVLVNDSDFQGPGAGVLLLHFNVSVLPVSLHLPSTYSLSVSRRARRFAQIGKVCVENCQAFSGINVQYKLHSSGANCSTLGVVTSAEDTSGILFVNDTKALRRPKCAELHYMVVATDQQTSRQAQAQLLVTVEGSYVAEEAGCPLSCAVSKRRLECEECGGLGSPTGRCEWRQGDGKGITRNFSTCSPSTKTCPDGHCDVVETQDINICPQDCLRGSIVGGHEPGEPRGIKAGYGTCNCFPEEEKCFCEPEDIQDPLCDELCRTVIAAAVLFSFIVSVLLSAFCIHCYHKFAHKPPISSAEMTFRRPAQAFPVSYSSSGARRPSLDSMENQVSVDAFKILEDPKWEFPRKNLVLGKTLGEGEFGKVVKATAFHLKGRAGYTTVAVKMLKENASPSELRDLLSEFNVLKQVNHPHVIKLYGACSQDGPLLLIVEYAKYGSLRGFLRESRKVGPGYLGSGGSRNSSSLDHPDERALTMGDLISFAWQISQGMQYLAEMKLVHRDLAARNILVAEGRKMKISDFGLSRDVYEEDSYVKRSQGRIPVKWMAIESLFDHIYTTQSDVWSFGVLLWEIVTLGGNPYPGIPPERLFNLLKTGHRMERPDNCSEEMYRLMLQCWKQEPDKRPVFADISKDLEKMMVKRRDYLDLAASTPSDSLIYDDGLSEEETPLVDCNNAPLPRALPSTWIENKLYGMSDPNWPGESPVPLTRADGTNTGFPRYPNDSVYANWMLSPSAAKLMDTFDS

CYP2C8 [3] = assay: In vitro CYP induction; assay type: in vitro ADME
MRP2 = MRP2 (Homo sapiens, UniProt Q92887); assay: Drug transporter systems; assay type: in vitro ADME; conditions: in vitro
MRP2, sequence (Q92887 whole entry): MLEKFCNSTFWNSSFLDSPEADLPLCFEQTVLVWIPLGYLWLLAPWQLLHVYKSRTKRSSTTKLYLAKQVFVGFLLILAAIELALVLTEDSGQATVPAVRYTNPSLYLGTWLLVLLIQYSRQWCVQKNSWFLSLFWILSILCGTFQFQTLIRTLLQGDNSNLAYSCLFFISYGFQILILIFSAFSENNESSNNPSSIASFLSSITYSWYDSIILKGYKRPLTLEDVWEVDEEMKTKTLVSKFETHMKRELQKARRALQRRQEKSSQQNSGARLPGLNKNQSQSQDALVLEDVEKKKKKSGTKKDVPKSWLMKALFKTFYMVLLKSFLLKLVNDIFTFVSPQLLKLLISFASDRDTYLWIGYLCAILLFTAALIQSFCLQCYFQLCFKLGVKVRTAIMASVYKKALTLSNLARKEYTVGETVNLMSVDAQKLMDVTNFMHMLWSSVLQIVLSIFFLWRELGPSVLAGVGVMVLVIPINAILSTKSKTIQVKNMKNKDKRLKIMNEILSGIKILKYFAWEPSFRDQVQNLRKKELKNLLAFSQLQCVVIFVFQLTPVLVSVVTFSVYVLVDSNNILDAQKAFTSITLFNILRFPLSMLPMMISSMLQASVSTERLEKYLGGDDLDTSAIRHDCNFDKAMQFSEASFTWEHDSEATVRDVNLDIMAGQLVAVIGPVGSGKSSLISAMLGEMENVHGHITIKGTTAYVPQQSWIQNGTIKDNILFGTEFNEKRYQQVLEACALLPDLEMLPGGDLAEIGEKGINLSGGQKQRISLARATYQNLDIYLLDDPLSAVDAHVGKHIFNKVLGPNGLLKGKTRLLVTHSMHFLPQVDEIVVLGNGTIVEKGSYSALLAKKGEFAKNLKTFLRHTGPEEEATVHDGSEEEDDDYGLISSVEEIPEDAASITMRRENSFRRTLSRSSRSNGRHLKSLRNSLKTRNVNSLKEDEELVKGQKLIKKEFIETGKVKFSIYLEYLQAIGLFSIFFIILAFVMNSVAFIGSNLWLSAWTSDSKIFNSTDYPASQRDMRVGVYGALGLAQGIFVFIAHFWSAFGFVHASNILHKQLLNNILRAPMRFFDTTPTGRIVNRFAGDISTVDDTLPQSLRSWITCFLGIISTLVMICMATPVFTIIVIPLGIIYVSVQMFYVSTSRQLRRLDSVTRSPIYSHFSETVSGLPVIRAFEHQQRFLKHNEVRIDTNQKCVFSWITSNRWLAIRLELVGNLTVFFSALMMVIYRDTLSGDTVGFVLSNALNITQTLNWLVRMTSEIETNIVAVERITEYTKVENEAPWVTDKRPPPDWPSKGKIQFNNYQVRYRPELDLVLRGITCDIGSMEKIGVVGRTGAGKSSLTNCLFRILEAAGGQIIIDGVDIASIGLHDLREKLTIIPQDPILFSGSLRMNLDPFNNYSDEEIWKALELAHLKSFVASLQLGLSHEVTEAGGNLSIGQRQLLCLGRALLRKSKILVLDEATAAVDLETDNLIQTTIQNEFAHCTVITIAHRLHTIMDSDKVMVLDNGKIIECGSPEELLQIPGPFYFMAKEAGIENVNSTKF

Sprague-Dawley rats = assay: 2-year rat carcinogenicity study; assay type: in vivo
CYP2C19 = CYP2C19 (Homo sapiens, UniProt P33261); assay: In vitro metabolic pathways; assay type: in vitro ADME
CYP2C19, sequence (P33261 whole entry): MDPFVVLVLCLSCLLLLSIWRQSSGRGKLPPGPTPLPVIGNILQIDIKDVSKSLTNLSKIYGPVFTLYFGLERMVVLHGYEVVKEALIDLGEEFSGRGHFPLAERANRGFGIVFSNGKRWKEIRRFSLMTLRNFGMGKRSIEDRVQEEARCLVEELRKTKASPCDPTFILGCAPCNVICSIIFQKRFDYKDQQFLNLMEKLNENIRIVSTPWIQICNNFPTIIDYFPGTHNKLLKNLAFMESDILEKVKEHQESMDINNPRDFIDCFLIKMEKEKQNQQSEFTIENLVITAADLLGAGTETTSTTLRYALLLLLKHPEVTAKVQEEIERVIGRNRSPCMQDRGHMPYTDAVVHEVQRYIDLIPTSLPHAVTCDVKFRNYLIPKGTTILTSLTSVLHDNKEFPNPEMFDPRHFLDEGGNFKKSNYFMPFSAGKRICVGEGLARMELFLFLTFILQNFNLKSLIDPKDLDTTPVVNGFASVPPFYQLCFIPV

[4] = Population pharmacokinetic analysis in specific populations; assay type: in vivo, human; conditions: integrated population pharmacokinetic analysis
Description: The pooled analysis included 391 patients with HCC of whom […] were categorized as having normal liver function, mild, and moderate hepatic impairment, respectively.

CYP2D6 [5] = target: T1, CYP2D6 (Homo sapiens, UniProt P10635); assay: In vitro metabolic pathways; assay type: in vitro ADME
T1 sequence (P10635 whole entry): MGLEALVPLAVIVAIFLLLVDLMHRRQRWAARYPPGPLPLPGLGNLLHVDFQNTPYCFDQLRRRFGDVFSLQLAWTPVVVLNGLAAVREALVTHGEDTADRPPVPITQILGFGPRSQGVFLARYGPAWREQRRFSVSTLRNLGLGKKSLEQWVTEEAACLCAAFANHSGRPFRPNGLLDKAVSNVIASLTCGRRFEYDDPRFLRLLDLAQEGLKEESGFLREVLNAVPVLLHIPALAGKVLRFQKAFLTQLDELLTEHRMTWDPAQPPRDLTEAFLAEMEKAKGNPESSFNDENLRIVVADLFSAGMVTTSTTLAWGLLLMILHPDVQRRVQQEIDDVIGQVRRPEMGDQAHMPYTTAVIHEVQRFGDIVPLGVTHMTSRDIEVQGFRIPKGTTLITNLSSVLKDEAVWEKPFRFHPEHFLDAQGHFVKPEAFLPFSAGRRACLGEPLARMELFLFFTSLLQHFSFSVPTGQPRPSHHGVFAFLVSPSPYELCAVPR

juvenile rats = assay type: in vivo, rat
Description: […]. Mortalities occurred at doses equal and greater than 1 mg/kg/day (approximately 0.16 times the clinical dose of 60 mg/day based on body surface area).

[6] = tested on: female rats and offspring; assay: Pre- and postnatal study in rats; conditions: oral, gestation day 10 through postnatal day 20
TRKB = TRKB (Homo sapiens, UniProt Q16620); assay: In vitro biochemical and/or cellular kinase assays
CYP3A4 [7] = target: CYP3A4 (Homo sapiens, UniProt P08684); assay: Drug interaction with strong CYP3A4 inhibitor ketoconazole; assay type: in vivo; set-up: from tissue; conditions: ketoconazole 400 mg daily for 27 days, healthy subjects
CYP3A4 [8] = assay: In vitro CYP induction; assay type: in vitro ADME
pregnant rats = assay: Embryo-fetal development study in pregnant rats; conditions: daily oral, throughout organogenesis
[9] = tested on: murine models of hepatocellular carcinoma; conditions: mouse, in vivo; cited from earlier work
CYP2B6 = assay: In vitro CYP induction; assay type: in vitro ADME
CYP2D6 [10] = target: T1, CYP2D6; assay: In vitro CYP inhibition; assay type: in vitro ADME

TIE-2, sequence (Q02763 23-1124): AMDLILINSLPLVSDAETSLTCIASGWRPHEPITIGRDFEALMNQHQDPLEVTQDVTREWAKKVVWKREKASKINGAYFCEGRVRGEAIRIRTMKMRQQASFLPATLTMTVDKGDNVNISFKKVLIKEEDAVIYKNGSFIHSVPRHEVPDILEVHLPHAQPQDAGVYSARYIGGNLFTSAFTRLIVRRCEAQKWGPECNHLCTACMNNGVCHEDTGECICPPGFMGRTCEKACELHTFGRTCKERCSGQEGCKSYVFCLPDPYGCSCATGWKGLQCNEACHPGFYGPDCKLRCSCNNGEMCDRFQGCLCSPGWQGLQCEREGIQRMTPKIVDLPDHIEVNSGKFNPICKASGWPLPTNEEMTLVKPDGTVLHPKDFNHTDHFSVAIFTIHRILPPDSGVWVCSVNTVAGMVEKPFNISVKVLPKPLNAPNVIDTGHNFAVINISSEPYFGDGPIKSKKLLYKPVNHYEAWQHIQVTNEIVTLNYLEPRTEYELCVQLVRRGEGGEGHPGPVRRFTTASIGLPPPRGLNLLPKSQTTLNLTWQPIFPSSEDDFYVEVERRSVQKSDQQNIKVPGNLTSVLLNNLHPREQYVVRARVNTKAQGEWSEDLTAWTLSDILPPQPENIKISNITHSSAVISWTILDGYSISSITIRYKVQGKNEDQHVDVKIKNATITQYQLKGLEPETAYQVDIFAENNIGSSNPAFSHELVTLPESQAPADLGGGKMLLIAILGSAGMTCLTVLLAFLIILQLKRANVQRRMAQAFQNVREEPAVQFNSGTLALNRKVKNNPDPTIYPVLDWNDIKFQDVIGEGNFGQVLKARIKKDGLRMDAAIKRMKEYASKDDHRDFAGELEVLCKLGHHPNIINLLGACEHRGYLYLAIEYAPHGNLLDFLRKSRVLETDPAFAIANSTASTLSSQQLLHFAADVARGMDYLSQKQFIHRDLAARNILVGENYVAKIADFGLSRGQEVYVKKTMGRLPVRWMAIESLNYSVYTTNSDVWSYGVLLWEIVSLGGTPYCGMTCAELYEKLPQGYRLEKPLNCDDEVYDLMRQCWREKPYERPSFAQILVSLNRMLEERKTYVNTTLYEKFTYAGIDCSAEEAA

COc1cc2nccc(Oc3ccc(NC(=O)C4(C(=O)Nc5ccc(F)cc5)CC4)cc3)c2cc1OC [cabozantinib]
Tyrosine kinase activity of TIE-2 (TIE-2): inhibits
Patients with any postbaseline reduction in SOD as best response ([1]; ITT): 47%
Patients with ≥30% reduction in SOD ([1]; ITT): 8%
Patients with ≥50% postbaseline decrease in serum AFP ([1]; ITT): 23%
Patients with ≥30% reduction in postbaseline SOD ([1]; baseline AFP <400 ng/mL): 9%
Patients with ≥30% reduction in postbaseline SOD ([1]; baseline AFP ≥400 ng/mL): 7%
Median TTP ([1]; in vivo): 5.4 months
Effect on CYP2C9 pathway (CYP2C9): affected by cabozantinib in vitro
Effect of inhibition of CYP2C8 on metabolite formation (CYP2C8 [2]): no effect
Tyrosine kinase activity of RET (RET): inhibits
Induction of CYP2C8 (CYP2C8 [3]): does not induce
MRP2 substrate status (MRP2): substrate
Exposure at that dose, times the human exposure by AUC at the recommended 60 mg dose (Sprague-Dawley rats; 1 mg/kg): approximately 5 times
Dose with statistically significant increase in incidence of pheochromocytoma in male rats (Sprague-Dawley rats; once daily oral, 2-year): 1 mg/kg
Effect of inhibition of CYP2C19 on metabolite formation (CYP2C19): no effect
Differences in mean plasma exposure among normal liver function, mild and moderate hepatic impairment [4]: no clinically significant differences
Effect of inhibition of CYP2D6 on metabolite formation (CYP2D6 [5]): no effect
Mortality (juvenile rats; 2 mg/kg): high levels of mortality
Effects on bones (juvenile rats; rat, in vivo): reduced bone mineral content and density, physeal hypertrophy, and decreased cortical bone
Recovery after treatment ceased (juvenile rats; rat, in vivo): effects on bone parameters were partially resolved but effects on the kidney and epididymis/testis persisted
Target organs (juvenile rats; rat, in vivo): kidney (nephropathy, glomerulonephritis), reproductive organs, gastrointestinal tract
1 mg/kg/day as times the clinical dose of 60 mg/day based on body surface area (juvenile rats; rat, in vivo, 1 mg/kg/day): approximately 0.16 times
2 mg/kg as times the clinical dose of 60 mg based on body surface area (juvenile rats; rat, in vivo, 2 mg/kg): approximately 0.32 times
Doses without adverse maternal toxicity or effect on offspring survival, growth or postnatal development [6]: up to 0.3 mg/kg/day
Tyrosine kinase activity of TRKB (TRKB): inhibits
Increase of single-dose plasma exposure (AUC0-inf) (CYP3A4 [7]): 38%
Induction of CYP3A4 (CYP3A4 [8]): does not induce
Dose with delayed ossification and skeletal variations (pregnant rats): 0.01 mg/kg/day
Tumor growth [9]: inhibits tumor growth
Induction of CYP2B6 (CYP2B6): does not induce
Inhibition of CYP2D6 (CYP2D6 [10]): does not inhibit
